In patent US12577250B2, “1,2,4-triazolone derivative as DHODH inhibitor, and preparation method therefor and use thereof” (WIGEN BIOMEDICINE TECHNOLOGY (SHANGHAI) CO., LTD., priority 2021, dated 2026):
Read-outs that look alike come from different tables or passages of the source.

Columns and labels:
[1] = test system: MV-4-11 cells; test: Anti-proliferative activity on MV-4-11 cells (CellTiter-Lumi, 72 h); format: cell-based; details: Homo sapiens, MV4-11, 72 h, read-out: Cell anti-proliferative activity IC50 MV-4-11
Description: MV-4-11 cells were seeded into a 384-well plate (Fisher 142762) at 3000 cells per well. The next day, serially diluted compounds were added, and 72 h after the addition, CellTiter-Lumi (Beyotime C0068XL) was added to measure the ATP content in the cells. The growth of the cells was evaluated, and IC50 of the compounds against cell growth was calculated.

[2] = molecular target: DHODH (Homo sapiens, UniProt Q02127); test: Assay against enzyme activity of DHODH (DCIP absorption at 600 nm); format: biochemical
Sequence of DHODH (Q02127 whole entry): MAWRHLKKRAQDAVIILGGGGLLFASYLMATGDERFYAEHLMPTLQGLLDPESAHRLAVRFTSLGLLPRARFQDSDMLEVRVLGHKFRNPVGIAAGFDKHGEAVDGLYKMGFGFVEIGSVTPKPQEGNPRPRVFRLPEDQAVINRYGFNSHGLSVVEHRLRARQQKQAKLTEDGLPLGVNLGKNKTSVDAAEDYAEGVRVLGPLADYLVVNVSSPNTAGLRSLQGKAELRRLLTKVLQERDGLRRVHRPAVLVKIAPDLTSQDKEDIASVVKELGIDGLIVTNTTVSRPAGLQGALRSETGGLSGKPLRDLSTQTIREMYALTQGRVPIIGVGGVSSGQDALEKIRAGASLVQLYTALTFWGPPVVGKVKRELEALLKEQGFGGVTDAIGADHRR
Description: The enzyme activity of DHODH was assayed through a cascade reaction to determine its ability to catalyze the oxidation of a natural substrate DHO (dihydroorotic acid) to orotic acid while reducing coenzyme Q. The enzyme activity of DHODH was indirectly detected by assaying the ability of the coenzyme Q to reduce a chromogenic substrate DCIP. After the compound and an enzyme reaction mixture were incubated for 5 min, a reaction substrate DHO was added to start the reaction, and the enzyme activity was assayed by assaying the absorption at 600 nm to detect the DCIP exhaustion in a timed manner.

Row | SMILES | IC50 [1] [µM] | IC50 [2] [µM] | IC50 ([1]; class symbols) [µM]
1 | C[C@H](Oc1cc(-n2nc3n(c2=O)CCC2(CC2)C3)c(F)cc1C(=O)Nc1ccccc1C(F)(F)F)C(F)(F)F [Compound 3] | 0.00545 | < 0.05 | 
2 | C[C@H](Oc1cc(-n2nc3n(c2=O)CCC2(CC2)C3)c(F)cc1C(=O)Nc1c(F)cccc1C(F)(F)F)C(F)(F)F [Compound 14] |  | < 0.05 | ≤ 0.05
3 | Cc1cccc(C(F)(F)F)c1NC(=O)c1cc(F)c(-n2nc3n(c2=O)CCC2(CC2)C3)cc1O[C@@H](C)C(F)(F)F [Compound 16] |  | < 0.05 | ≤ 0.05
4 | C[C@H](Oc1cc(-n2nc3n(c2=O)CCC2(CC2)C3)c(F)cc1C(=O)Nc1ccc(N)cc1C(F)(F)F)C(F)(F)F [Compound 26] |  | < 0.05 | ≤ 0.05
5 | C[C@H](Oc1cc(-n2nc3n(c2=O)CCC2(CC2)C3)c(F)cc1C(=O)Nc1c(F)cc(F)cc1Cl)C(F)(F)F [Compound 27] |  | < 0.05 | ≤ 0.05
6 | C[C@H](Oc1cc(-n2nc3n(c2=O)CCC2(CC2)C3)c(F)cc1C(=O)Nc1c(Cl)cc(F)cc1Cl)C(F)(F)F [Compound 28] |  | < 0.05 | ≤ 0.05
7 | COc1cc(F)c(NC(=O)c2cc(F)c(-n3nc4n(c3=O)CCC3(CC3)C4)cc2O[C@@H](C)C(F)(F)F)c(F)c1 [Compound 30] |  | < 0.05 | ≤ 0.05
8 | COc1ccnc(C)c1NC(=O)c1cc(F)c(-n2nc3n(c2=O)CCC2(CC2)C3)cc1O[C@@H](C)C(F)(F)F [Compound 35] | 0.00679 | < 0.05 | 
9 | COc1nccc(Cl)c1NC(=O)c1cc(F)c(-n2nc3n(c2=O)CCC2(CC2)C3)cc1O[C@@H](C)C(F)(F)F [Compound 37] | 0.0105 | < 0.05 | 
10 | Cc1n[nH]c(C)c1NC(=O)c1cc(F)c(-n2nc3n(c2=O)CCC2(CC2)C3)cc1O[C@@H](C)C(F)(F)F [Compound 38] | 0.0214 | < 0.05 | 
11 | Cc1n[nH]c(Cl)c1NC(=O)c1cc(F)c(-n2nc3n(c2=O)CCC2(CC2)C3)cc1O[C@@H](C)C(F)(F)F [Compound 39] | 0.0658 | < 0.05 | 
12 | CC(C)Oc1cc(-n2nc3n(c2=O)CCC2(CC2)C3)c(F)cc1C(=O)Nc1c(F)cccc1Cl [Compound 40] |  | < 0.05 | ≤ 0.05
13 | CC[C@H](C)Oc1cc(-n2nc3n(c2=O)CCC2(CC2)C3)c(F)cc1C(=O)Nc1c(F)cccc1Cl [Compound 41] |  | < 0.05 | ≤ 0.05
14 | CCC[C@H](C)Oc1cc(-n2nc3n(c2=O)CCC2(CC2)C3)c(F)cc1C(=O)Nc1c(F)cccc1Cl [Compound 42] |  | < 0.05 | ≤ 0.05
15 | CC(C)[C@H](C)Oc1cc(-n2nc3n(c2=O)CCC2(CC2)C3)c(F)cc1C(=O)Nc1c(F)cccc1Cl [Compound 43] |  | < 0.05 | ≤ 0.05
16 | C[C@H](Oc1cc(-n2nc3n(c2=O)CCC2(CC2)C3)c(F)cc1C(=O)Nc1c(F)cccc1Cl)C1CC1 [Compound 44] |  | < 0.05 | ≤ 0.05
17 | C[C@H](Oc1cc(-n2nc3n(c2=O)CCC2(CC2)C3)c(F)cc1C(=O)Nc1c(F)cccc1Cl)C1CCC1 [Compound 45] |  | < 0.05 | ≤ 0.05
18 | C[C@H](Oc1cc(-n2nc3n(c2=O)CCC2(CC2)C3)c(F)cc1C(=O)Nc1c(F)cccc1Cl)C1CCCC1 [Compound 46] |  | < 0.05 | ≤ 0.05
19 | C[C@H](Oc1cc(-n2nc3n(c2=O)CCC2(CC2)C3)c(F)cc1C(=O)Nc1c(F)cccc1Cl)C1CCCCC1 [Compound 47] |  | < 0.05 | ≤ 0.05
20 | C[C@H](Oc1cc(-n2nc3n(c2=O)CC2(CC2)C3)c(F)cc1C(=O)Nc1c(F)cccc1Cl)C(F)(F)F [Compound 48] | 0.0107 | < 0.05 | 
21 | C[C@H](Oc1cc(-n2nc3n(c2=O)CC2(CC2)C3)c(F)cc1C(=O)Nc1c(F)cccc1Cl)C1CCCCC1 [Compound 49] |  | < 0.05 | ≤ 0.05
22 | CCC[C@H](C)Oc1cc(-n2nc3n(c2=O)CC2(CC2)C3)c(F)cc1C(=O)Nc1c(F)cccc1Cl [Compound 50] |  | < 0.05 | ≤ 0.05
23 | C[C@H](Oc1cc(-n2nc3n(c2=O)CCCC2(CC2)C3)c(F)cc1C(=O)Nc1c(F)cccc1Cl)C1CCCCC1 [Compound 52] |  | < 0.05 | ≤ 0.05
24 | CCC[C@H](C)Oc1cc(-n2nc3n(c2=O)CCCC2(CC2)C3)c(F)cc1C(=O)Nc1c(F)cccc1Cl [Compound 53] | 0.00689 | < 0.05 | 
25 | C[C@H](Oc1nc(-n2nc3n(c2=O)CCC2(CC2)C3)c(F)cc1C(=O)Nc1c(F)cccc1Cl)C1CCCCC1 [Compound 55] | 0.00145 | < 0.05 | 
26 | CCC[C@H](C)Oc1nc(-n2nc3n(c2=O)CCC2(CC2)C3)c(F)cc1C(=O)Nc1c(F)cccc1Cl [Compound 56] | 0.00197 | < 0.05 | 

Results, then the compound that gave them:

Row | IC50 [1] [µM] | IC50 [2] [µM] | IC50 ([1]; class symbols) [µM] | SMILES
27 | 0.00456 |  |  | C[C@H](Oc1cc(-n2nc3n(c2=O)CCC2(CC2)C3)c(F)cc1C(=O)Nc1ccccc1F)C(F)(F)F [Compound 2]
28 |  | < 0.05 | ≤ 0.05 | C[C@H](Oc1cc(-n2nc3n(c2=O)CCC2(CC2)C3)c(F)cc1C(=O)Nc1ccccc1C(F)F)C(F)(F)F [Compound 4]
29 |  | < 0.05 | ≤ 0.05 | Cc1ccccc1NC(=O)c1cc(F)c(-n2nc3n(c2=O)CCC2(CC2)C3)cc1O[C@@H](C)C(F)(F)F [Compound 5]
30 |  | < 0.05 | ≤ 0.05 | CCc1ccccc1NC(=O)c1cc(F)c(-n2nc3n(c2=O)CCC2(CC2)C3)cc1O[C@@H](C)C(F)(F)F [Compound 6]
31 |  | < 0.05 | ≤ 0.05 | Cc1cccc(NC(=O)c2cc(F)c(-n3nc4n(c3=O)CCC3(CC3)C4)cc2O[C@@H](C)C(F)(F)F)c1 [Compound 7]
32 |  | < 0.05 | ≤ 0.05 | C[C@H](Oc1cc(-n2nc3n(c2=O)CCC2(CC2)C3)c(F)cc1C(=O)Nc1cccc(Cl)c1)C(F)(F)F [Compound 8]
33 |  | < 0.05 | ≤ 0.05 | C[C@H](Oc1cc(-n2nc3n(c2=O)CCC2(CC2)C3)c(F)cc1C(=O)Nc1cccc(F)c1)C(F)(F)F [Compound 9]
34 | 0.00224 |  |  | C[C@H](Oc1cc(-n2nc3n(c2=O)CCC2(CC2)C3)c(F)cc1C(=O)Nc1c(F)cccc1F)C(F)(F)F [Compound 10]
35 | 0.00213 |  |  | Cc1cccc(F)c1NC(=O)c1cc(F)c(-n2nc3n(c2=O)CCC2(CC2)C3)cc1O[C@@H](C)C(F)(F)F [Compound 11]
36 | 0.00145 | < 0.05 |  | Cc1cccc(Cl)c1NC(=O)c1cc(F)c(-n2nc3n(c2=O)CCC2(CC2)C3)cc1O[C@@H](C)C(F)(F)F [Compound 12]
37 | 0.00156 | < 0.05 |  | C[C@H](Oc1cc(-n2nc3n(c2=O)CCC2(CC2)C3)c(F)cc1C(=O)Nc1c(Cl)cccc1Cl)C(F)(F)F [Compound 13]
38 | 0.00342 |  |  | COc1cccc(C)c1NC(=O)c1cc(F)c(-n2nc3n(c2=O)CCC2(CC2)C3)cc1O[C@@H](C)C(F)(F)F [Compound 15]
39 |  |  | ≤ 0.05 | Cc1cccc(N)c1NC(=O)c1cc(F)c(-n2nc3n(c2=O)CCC2(CC2)C3)cc1O[C@@H](C)C(F)(F)F [Compound 17]
40 |  |  | ≤ 0.05 | COc1cccc(C)c1NC(=O)c1cc(F)c(-n2nc3n(c2=O)CCC2(CC2)C3)cc1O[C@@H](C)C(F)(F)F [Compound 18]
41 |  | < 0.05 | ≤ 0.05 | Cc1ccc(F)c(NC(=O)c2cc(F)c(-n3nc4n(c3=O)CCC3(CC3)C4)cc2O[C@@H](C)C(F)(F)F)c1 [Compound 19]
42 |  | < 0.05 | ≤ 0.05 | C[C@H](Oc1cc(-n2nc3n(c2=O)CCC2(CC2)C3)c(F)cc1C(=O)Nc1cc(Cl)ccc1F)C(F)(F)F [Compound 20]
43 |  | < 0.05 | ≤ 0.05 | C[C@H](Oc1cc(-n2nc3n(c2=O)CCC2(CC2)C3)c(F)cc1C(=O)Nc1ccc(F)cc1Cl)C(F)(F)F [Compound 21]
44 |  | < 0.05 | ≤ 0.05 | Cc1cc(F)ccc1NC(=O)c1cc(F)c(-n2nc3n(c2=O)CCC2(CC2)C3)cc1O[C@@H](C)C(F)(F)F [Compound 22]
45 |  | < 0.05 | ≤ 0.05 | Cc1c(F)cccc1NC(=O)c1cc(F)c(-n2nc3n(c2=O)CCC2(CC2)C3)cc1O[C@@H](C)C(F)(F)F [Compound 23]
46 |  | < 0.05 | ≤ 0.05 | Cc1c(Cl)cccc1NC(=O)c1cc(F)c(-n2nc3n(c2=O)CCC2(CC2)C3)cc1O[C@@H](C)C(F)(F)F [Compound 24]
47 |  | < 0.05 | ≤ 0.05 | Cc1cc(N)ccc1NC(=O)c1cc(F)c(-n2nc3n(c2=O)CCC2(CC2)C3)cc1O[C@@H](C)C(F)(F)F [Compound 25]
48 |  | < 0.05 | ≤ 0.05 | Cc1cc(F)cc(Cl)c1NC(=O)c1cc(F)c(-n2nc3n(c2=O)CCC2(CC2)C3)cc1O[C@@H](C)C(F)(F)F [Compound 29]
49 |  | < 0.05 | ≤ 0.05 | C[C@H](Oc1cc(-n2nc3n(c2=O)CCC2(CC2)C3)c(F)cc1C(=O)Nc1c(Cl)ccc(F)c1F)C(F)(F)F [Compound 31]
50 |  | < 0.05 | ≤ 0.05 | Cc1ccc(Cl)c(NC(=O)c2cc(F)c(-n3nc4n(c3=O)CCC3(CC3)C4)cc2O[C@@H](C)C(F)(F)F)c1C [Compound 32]
51 |  | < 0.05 | 0.05 to 0.5 | Cc1cccnc1NC(=O)c1cc(F)c(-n2nc3n(c2=O)CCC2(CC2)C3)cc1O[C@@H](C)C(F)(F)F [Compound 33]
52 | 0.0102 | < 0.05 |  | Cc1cnccc1NC(=O)c1cc(F)c(-n2nc3n(c2=O)CCC2(CC2)C3)cc1O[C@@H](C)C(F)(F)F [Compound 34]
53 | 0.0124 | < 0.05 |  | Cc1ccnc(Cl)c1NC(=O)c1cc(F)c(-n2nc3n(c2=O)CCC2(CC2)C3)cc1O[C@@H](C)C(F)(F)F [Compound 36]
